From article PMC12207366, “Protonated Glutamate and Aspartate Side Chains Can Recognize Phosphodiester Groups via Strong and Short Hydrogen Bonds in Biomacromolecular Complexes” (Angewandte Chemie (International Ed. in English), 2025)
Where two headings read alike, the source gives them in different places.

Experiments:
PilF159-302 WT [1] = molecular target: T1, PilF159-302 WT (Thermus thermophilus, UniProt Q72H73); assay: ITC c-di-GMP binding to wild-type GSPII-B domain; conditions: for -TΔS / Kd / ΔG / ΔH: 20 °C
T1 sequence (Q72H73 159-302): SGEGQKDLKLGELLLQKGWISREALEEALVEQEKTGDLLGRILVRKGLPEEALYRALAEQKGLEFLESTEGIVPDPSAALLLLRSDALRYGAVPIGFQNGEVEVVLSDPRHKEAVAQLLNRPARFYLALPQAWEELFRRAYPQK
Excerpt: (§1) To characterize c-di-GMP binding by PilF159-302, the Q190E and Q218E constructs via isothermal titration calorimetry (ITC) and X-ray crystallography unlabeled c-di-GMP was synthesized using a constitutively active mutant of a diguanylate cyclase from the thermophilic bacterium Thermogata maritima ^[4^4,4^5]. For NMR experiments ^13C,^15N labelled c-di-GMP was synthesized identically using ^13C,^15N labelled GTP as a substrate.
(§2) c-di-GMP binding capabilities of PilF159-302, its mutant constructs PilF159-302 Q190E and PilF159-302 Q218E at varying pH-values were investigated by isothermal titration calorimetry (ITC) experiments in triplicate. All measurements were conducted at 20 °C using a MicroCal ITC200 (Malvern Panalytical, UK). For PilF159-302 Q190E and PilF159-302 Q218E ITC-measurements were conducted in a pH range from pH 8.5 – 4.0 with the buffering agent adjusted to the respective pH-range. For the pH-range 8.5 – 7.5 a sample buffer of 50 mM Tris, 200 mM NaCl and 1 mM β-Me was used. For pH values 7.0 – 6.0 a sample buffer of 50 mM BisTris, 200 mM NaCl, 1 mM β-Me and for pH 5.5 – 4.0 a sample buffer of 50 mM NaAc, 200 mM NaCl, 1 mM β-Me was used. For reference PilF159-302 was titrated with c-di-GMP at pH 8.5 in 50 mM Tris pH 8.5, 200 mM NaCl, 1 mM β-Me and at pH 4.0 in 50 mM NaAc pH 4.0, 200 mM NaCl, 1 mM β-Me. In order to test whether the buffer reagents have an influence on the measured thermodynamic parameters, cross measurements were performed in the region of the pH transitions. To this end, additional measurements with BisTris at pH 7.5 and 5.5, with Tris at pH 7.0 and with NaAc at pH 6.0 were carried out as singlets. The buffer agents had no influence on measured KD-values and resulted only in small changes of the ΔH values. All protein samples were dialyzed two times against 500 ml of the respective sample buffer (1 L in total) at 4 °C for at least 16 hours per step using a dialysis chamber with a nominal 3.5 kDa molecular weight cutoff (ZelluTrans, ROTH). To prepare the ITC-measurements protein and c-di-GMP sample were adjusted to the respective concentration using the dialysis buffer. Protein and c-di-GMP concentration ranged from 20 to 50 µM (protein) and 200 to 500 µM (c-di-GMP) depending on the c-di-GMP binding capabilities at the different pH-values to optimize precision of the measurements. For pH 8.5 – 7.0 a protein concentration of 50 µM with 500 µM c-di-GMP was used. For pH 6.5 – 5.0 a protein concentration of 30 µM with 300 µM c-di-GMP and for pH 4.5 – 4.0 a protein concentration of 20 µM with 200 µM c-di-GMP was used. The following protocol was utilized for each measurement. To 270 µl protein a total of 40 µl c-di-GMP was titrated in 21 injections with a duration of 4 s in intervals of 180 s with a stirring speed of 750 rpm. The first injection of 0.2 µl c-di-GMP with a duration of 0.4 s was carried out after an initial delay of 120 s, which was followed by 20 injections of 2 µl each with a duration of 4 s. During the measurement, the feedback mode was set to high and the reference power to 11 µcal s^-1. All thermograms were processed using Origin 7.0 (OriginLab) using the one-site binding model.

PilF159-302 Q190E [2] = molecular target: T2, PilF159-302 Q190E (Thermus thermophilus, UniProt Q72H73, Q190E); assay: ITC c-di-GMP binding to Q190E mutant, pH series; conditions: 20 °C
T2 sequence (Q72H73 159-302 Q190E): T1 sequence (Q72H73 159-302)
Excerpt: as §1, §2

PilF159-302 Q218E [3] = molecular target: T3, PilF159-302 Q218E (Thermus thermophilus, UniProt Q72H73, Q218E); assay: ITC c-di-GMP binding to Q218E mutant, pH series; conditions: 20 °C
T3 sequence (Q72H73 159-302 Q218E): T1 sequence (Q72H73 159-302)
Excerpt: as §1, §2

PilF159-302 WT [4] = molecular target: T1, PilF159-302 WT; design: method as in PMID 39615687; conditions: GSPII-B (PilF159-302) four-helix bundle; cited from earlier work
PilF159-302 Q190E [5] = molecular target: T2, PilF159-302 Q190E; design: method as in PMID 39615687; conditions: in vitro, pH 7.5; cited from earlier work
PilF159-302 Q218E [6] = molecular target: T3, PilF159-302 Q218E; design: method as in PMID 39615687; conditions: in vitro, pH 7.5; cited from earlier work
[7] = test system: GSPII-B domain Q190E Q218E double mutant; design: method as in PMID 39615687; conditions: in vitro, pH 7.5; cited from earlier work
PilF159-221 = test system: PilF159-221; design: method as in PMID 39615687; conditions: cited from earlier work
[8] = Bis-Tris, pH 5.5, buffer cross measurement, singlet
[9] = Bis-Tris, pH 7.5, buffer cross measurement, singlet
[10] = Na-Acetate, pH 6.0, buffer cross measurement, singlet
[11] = Tris, pH 7.0, buffer cross measurement, singlet

## Nc1nc2c(ncn2C2OC3COP(=O)(O)OC4C(COP(=O)(O)OC3C2O)OC(n2cnc3c(=O)[nH]c(N)nc32)C4O)c(=O)[nH]1 (stereo not shown) [c-di-GMP]
PilF159-302 WT [1]; ITC, pH 4.0 versus pH 8.5
  c-di-GMP binding affinity, pH dependence: similar
PilF159-302 WT [1]; Na-Acetate, pH 4.0
  -TΔS: -4.81 kcal/mol
  Kd: 4 nM
  ΔG: -11.26 kcal/mol
  ΔH: -6.45 kcal/mol
PilF159-302 WT [1]; Tris, pH 8.5
  -TΔS: 0.63 kcal/mol
  Kd: 9 nM
  ΔG: -10.78 kcal/mol
  ΔH: -11.41 kcal/mol
PilF159-302 Q190E [2]; [8]
  -TΔS: -2.53 kcal/mol
  Kd: 71 nM
  ΔG: -9.58 kcal/mol
  ΔH: -7.06 kcal/mol
PilF159-302 Q190E [2]; Bis-Tris, pH 6.0
  -TΔS: -3.45 ± 0.05 kcal/mol
  Kd: 67 ± 3 nM
  N: 0.96 ± 0.01
  ΔG: -9.40 ± 0.02 kcal/mol
  ΔH: -5.97 ± 0.05 kcal/mol
PilF159-302 Q190E [2]; Bis-Tris, pH 6.5
  -TΔS: -3.55 ± 0.20 kcal/mol
  Kd: 160 ± 34 nM
  N: 0.72 ± 0.12
  ΔG: -9.12 ± 0.13 kcal/mol
  ΔH: -5.58 ± 0.09 kcal/mol
PilF159-302 Q190E [2]; Bis-Tris, pH 7.0
  -TΔS: -4.14 ± 0.23 kcal/mol
  Kd: 236 ± 8 nM
  N: 0.98 ± 0.01
  ΔG: -8.88 ± 0.02 kcal/mol
  ΔH: -4.76 ± 0.21 kcal/mol
PilF159-302 Q190E [2]; [9]
  -TΔS: -2.51 kcal/mol
  Kd: 505 nM
  ΔG: -8.44 kcal/mol
  ΔH: -5.93 kcal/mol
PilF159-302 Q190E [2]; Na-Acetate, pH 4.0
  -TΔS: -2.59 ± 0.37 kcal/mol
  Kd: 40 ± 13 nM
  N: 0.98 ± 0.01
  ΔG: -9.96 ± 0.22 kcal/mol
  ΔH: -7.37 ± 0.17 kcal/mol
PilF159-302 Q190E [2]; Na-Acetate, pH 4.5
  -TΔS: -2.27 ± 0.87 kcal/mol
  Kd: 42 ± 13 nM
  N: 0.95 ± 0.13
  ΔG: -9.92 ± 0.18 kcal/mol
  ΔH: -7.65 ± 0.98 kcal/mol
PilF159-302 Q190E [2]; Na-Acetate, pH 5.0
  -TΔS: -0.27 ± 0.51 kcal/mol
  Kd: 78 ± 11 nM
  N: 0.91 ± 0.04
  ΔG: -9.54 ± 0.09 kcal/mol
  ΔH: -9.28 ± 0.43 kcal/mol
PilF159-302 Q190E [2]; Na-Acetate, pH 5.5
  -TΔS: -1.11 ± 0.16 kcal/mol
  Kd: 74 ± 8 nM
  N: 1.02 ± 0.02
  ΔG: -9.56 ± 0.07 kcal/mol
  ΔH: -8.54 ± 0.04 kcal/mol
PilF159-302 Q190E [2]; [10]
  -TΔS: -0.49 kcal/mol
  Kd: 96 nM
  ΔG: -9.41 kcal/mol
  ΔH: -8.93 kcal/mol
PilF159-302 Q190E [2]; [11]
  -TΔS: -6.09 kcal/mol
  Kd: 223 nM
  ΔG: -8.92 kcal/mol
  ΔH: -2.81 kcal/mol
PilF159-302 Q190E [2]; Tris, pH 7.5
  -TΔS: -4.63 ± 0.19 kcal/mol
  Kd: 511 ± 13 nM
  N: 0.95 ± 0.09
  ΔG: -8.44 ± 0.02 kcal/mol
  ΔH: -3.81 ± 0.20 kcal/mol
PilF159-302 Q190E [2]; Tris, pH 8.0
  -TΔS: -3.37 ± 0.65 kcal/mol
  Kd: 729 ± 44 nM
  N: 0.84 ± 0.17
  ΔG: -8.23 ± 0.04 kcal/mol
  ΔH: -4.87 ± 0.68 kcal/mol
PilF159-302 Q190E [2]; Tris, pH 8.5
  -TΔS: -2.52 ± 0.20 kcal/mol
  Kd: 798 ± 39 nM
  N: 0.86 ± 0.09
  ΔG: -8.18 ± 0.03 kcal/mol
  ΔH: -5.66 ± 0.17 kcal/mol
PilF159-302 Q218E [3]; Bis-Tris, pH 6.0
  -TΔS: -2.23 ± 0.80 kcal/mol
  Kd: 64 ± 7 nM
  N: 1.03 ± 0.23
  ΔG: -9.64 ± 0.06 kcal/mol
  ΔH: -7.42 ± 0.75 kcal/mol
PilF159-302 Q218E [3]; Bis-Tris, pH 6.5
  -TΔS: -1.48 ± 0.23 kcal/mol
  Kd: 110 ± 3 nM
  N: 1.00 ± 0.27
  ΔG: -9.33 ± 0.02 kcal/mol
  ΔH: -7.86 ± 0.22 kcal/mol
PilF159-302 Q218E [3]; Bis-Tris, pH 7.0
  -TΔS: -2.05 ± 0.07 kcal/mol
  Kd: 249 ± 7 nM
  N: 0.90 ± 0.16
  ΔG: -8.85 ± 0.02 kcal/mol
  ΔH: -6.80 ± 0.08 kcal/mol
PilF159-302 Q218E [3]; Na-Acetate, pH 4.0
  Kd: 23 ± 10 nM
  N: 0.84 ± 0.07
PilF159-302 Q218E [3]; Na-Acetate, pH 4.5
  -TΔS: -2.56 ± 0.49 kcal/mol
  Kd: 61 ± 7 nM
  N: 0.90 ± 0.04
  ΔG: -9.68 ± 0.07 kcal/mol
  ΔH: -7.12 ± 0.44 kcal/mol
PilF159-302 Q218E [3]; Na-Acetate, pH 5.0
  -TΔS: -1.47 ± 0.47 kcal/mol
  Kd: 36 ± 8 nM
  N: 1.31 ± 0.09
  ΔG: -9.99 ± 0.13 kcal/mol
  ΔH: -8.53 ± 0.44 kcal/mol
PilF159-302 Q218E [3]; Na-Acetate, pH 5.5
  -TΔS: -0.40 ± 1.00 kcal/mol
  Kd: 28 ± 10 nM
  N: 0.97 ± 0.09
  ΔG: -10.17 ± 0.20 kcal/mol
  ΔH: -9.78 ± 0.92 kcal/mol
PilF159-302 Q218E [3]; Tris, pH 7.5
  -TΔS: -3.22 ± 0.17 kcal/mol
  Kd: 342 ± 26 nM
  N: 0.92 ± 0.07
  ΔG: -8.67 ± 0.04 kcal/mol
  ΔH: -5.45 ± 0.13 kcal/mol
PilF159-302 Q218E [3]; Tris, pH 8.0
  -TΔS: 0.99 ± 0.27 kcal/mol
  Kd: 432 ± 25 nM
  N: 1.12 ± 0.05
  ΔG: -8.53 ± 0.03 kcal/mol
  ΔH: -9.52 ± 0.31 kcal/mol
PilF159-302 Q218E [3]; Tris, pH 8.5
  -TΔS: 2.15 ± 0.18 kcal/mol
  Kd: 463 ± 13 nM
  N: 0.73 ± 0.14
  ΔG: -8.49 ± 0.02 kcal/mol
  ΔH: -10.65 ± 0.16 kcal/mol
PilF159-302 WT [4]
  Kd: ~6 nM
PilF159-302 Q190E [5]
  c-di-GMP binding affinity relative to WT: significantly reduced affinity
PilF159-302 Q218E [6]
  c-di-GMP binding affinity relative to WT: significantly reduced affinity
[7]
  c-di-GMP binding: did not bind
PilF159-221
  c-di-GMP binding affinity of subdomain relative to full-length domain: comparable
